How the values were obtained:
Test in all cases: relative viability (nuclei count vs DMSO), 5 days (fraction); higher = more cells survive
KN-93 + OSI-027 = compound: CN(C/C=C/C1=CC=C(C=C1)Cl)CC2=CC=CC=C2N(CCO)S(=O)(=O)C3=CC=C(C=C3)OC [KN-93] + COc1cccc2cc(-c3nc([C@H]4CC[C@H](C(=O)O)CC4)n4ncnc(N)c34)[nH]c12 [OSI-027] (partner 0.5 µM)
In short: (§1)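 Lung cancer cell lines in 1536-well plates got either a single drug or a fixed anchor-drug dose together with five library-drug doses (not always all listed) in √10 steps, by pin tool, on the day after seeding. Nuclei were counted after 5 days, and relative viability is the treated-to-vehicle ratio of nuclei counts. Values are medians of duplicate plates.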

KN-93 + Alpelisib = compound: CN(C/C=C/C1=CC=C(C=C1)Cl)CC2=CC=CC=C2N(CCO)S(=O)(=O)C3=CC=C(C=C3)OC [KN-93] + Cc1nc(NC(=O)N2CCC[C@H]2C(N)=O)sc1-c1ccnc(C(C)(C)C(F)(F)F)c1 [Alpelisib] (partner 2 µM)
In short: as §1

KN-93 + Decitabine = compound: CN(C/C=C/C1=CC=C(C=C1)Cl)CC2=CC=CC=C2N(CCO)S(=O)(=O)C3=CC=C(C=C3)OC [KN-93] + Nc1ncn([C@H]2C[C@H](O)[C@@H](CO)O2)c(=O)n1 [Decitabine] (partner 2 µM)
In short: as §1

KN-93 + Luminespib = compound: CN(C/C=C/C1=CC=C(C=C1)Cl)CC2=CC=CC=C2N(CCO)S(=O)(=O)C3=CC=C(C=C3)OC [KN-93] + CCNC(=O)c1noc(-c2cc(C(C)C)c(O)cc2O)c1-c1ccc(CN2CCOCC2)cc1 [Luminespib] (partner 0.01 µM)
In short: as §1

KN-93 + Foretinib = compound: CN(C/C=C/C1=CC=C(C=C1)Cl)CC2=CC=CC=C2N(CCO)S(=O)(=O)C3=CC=C(C=C3)OC [KN-93] + COc1cc2c(Oc3ccc(NC(=O)C4(C(=O)Nc5ccc(F)cc5)CC4)cc3F)ccnc2cc1OCCCN1CCOCC1 [Foretinib] (partner 0.25 µM)
In short: as §1

Cell Line	relative viability (KN-93 + OSI-027; first compound 0.08 µM)	relative viability (KN-93 + OSI-027; first compound 0.253 µM)	relative viability (KN-93 + OSI-027; first compound 2.53 µM)	relative viability (KN-93 + OSI-027; first compound 8 µM)	relative viability (KN-93 + Alpelisib; first compound 0.08 µM)	relative viability (KN-93 + Alpelisib; first compound 0.253 µM)	relative viability (KN-93 + Alpelisib; first compound 2.53 µM)	relative viability (KN-93 + Alpelisib; first compound 8 µM)	relative viability (KN-93 + Decitabine; first compound 0.08 µM)	relative viability (KN-93 + Decitabine; first compound 0.253 µM)	relative viability (KN-93 + Decitabine; first compound 2.53 µM)	relative viability (KN-93 + Decitabine; first compound 8 µM)	relative viability (KN-93 + Luminespib; first compound 0.08 µM)	relative viability (KN-93 + Luminespib; first compound 0.253 µM)	relative viability (KN-93 + Luminespib; first compound 2.53 µM)	relative viability (KN-93 + Luminespib; first compound 8 µM)	relative viability (KN-93 + Foretinib; first compound 0.08 µM)	relative viability (KN-93 + Foretinib; first compound 2.53 µM)	relative viability (KN-93 + Foretinib; first compound 8 µM)	relative viability (KN-93 + Foretinib; first compound 0.253 µM)
NCI-H2023	0.361	0.359	0.345	0.211	0.562	0.46	0.689	0.517	0.189	0.239	0.219	0.201	0.693	0.703	0.872	0.358	0.935	0.981	0.627	–
NCI-H647	0.695	0.643	0.856	0.533	1.39	1.52	1.32	0.717	0.373	0.487	0.444	0.409	0.168	0.145	0.13	0.109	1.11	1.54	1.07	1.37
HCC-15	0.558	0.722	0.636	0.527	0.816	1.09	0.884	0.744	0.546	0.62	0.707	0.309	0.297	0.319	0.504	0.279	0.914	1.11	0.807	1.12
HARA	0.427	0.457	0.413	0.138	0.811	0.775	0.705	0.471	0.572	0.554	0.641	0.506	0.659	1.15	0.449	0.284	0.918	0.887	0.532	1.37
NCI-H650	0.502	0.536	0.576	0.443	1.04	1.34	1.04	0.65	0.325	0.272	0.302	0.311	0.697	0.76	0.855	0.579	1.11	0.968	0.705	0.972
COR-L 105	0.618	0.771	0.588	0.437	0.866	0.991	0.918	0.74	0.635	0.657	0.667	0.634	0.765	0.869	0.675	0.739	0.987	1.02	0.73	1.05
ABC-1	0.455	0.294	0.509	0.257	0.893	1.27	1.13	0.715	1.37	1	1.17	0.411	0.701	0.752	0.368	0.271	0.956	0.873	0.314	1.17
NCI-H1993	0.544	0.607	0.565	0.573	0.648	0.574	0.71	0.59	0.573	0.548	0.579	0.601	0.677	0.756	0.929	0.638	0.774	0.808	0.672	0.78
LC-2-ad	0.874	0.964	0.842	0.707	0.815	0.945	0.84	0.53	0.775	0.772	0.911	0.702	1.11	1.15	0.94	0.818	0.992	0.915	0.699	1.01
H3255	0.615	0.515	0.619	0.431	0.664	0.788	0.631	0.532	0.603	0.728	0.54	0.474	0.85	0.97	0.774	0.776	0.986	0.864	0.807	0.902
COR-L23	0.748	1.02	0.798	0.353	0.743	1.01	0.745	0.601	0.459	0.409	0.495	0.35	0.604	1	0.978	0.424	0.907	1.14	0.654	1.08
HCC-827	0.729	0.777	0.991	0.565	0.959	0.985	0.962	0.755	0.356	0.335	0.332	0.304	0.642	0.836	0.496	0.465	1.05	0.931	0.577	1.09
NCI-H2087	0.481	0.566	0.586	0.491	0.879	1.21	0.933	0.532	0.28	0.235	0.273	0.155	0.16	0.182	0.184	0.133	0.983	1.21	0.697	1.31
NCI-H3122	0.967	1.04	1.04	0.631	0.829	0.659	0.766	0.585	0.364	0.398	0.359	0.367	0.0763	0.0918	0.0989	0.0487	1.05	1.11	0.912	1.13
SK-LU-1	0.334	0.328	0.343	0.224	1.19	1.47	0.926	0.471	0.627	0.702	0.633	0.364	0.244	0.209	0.199	0.183	0.768	0.938	0.48	1.05
NCI-H2170	0.713	0.712	0.728	0.567	0.782	0.876	0.928	0.65	0.468	0.501	0.49	0.436	0.785	0.852	0.963	0.483	0.973	0.903	0.892	1.23

Cell Line	relative viability (KN-93 + OSI-027; first compound 0.08 µM)	relative viability (KN-93 + OSI-027; first compound 0.253 µM)	relative viability (KN-93 + OSI-027; first compound 2.53 µM)	relative viability (KN-93 + OSI-027; first compound 8 µM)	relative viability (KN-93 + Alpelisib; first compound 0.08 µM)	relative viability (KN-93 + Alpelisib; first compound 0.253 µM)	relative viability (KN-93 + Alpelisib; first compound 2.53 µM)	relative viability (KN-93 + Alpelisib; first compound 8 µM)	relative viability (KN-93 + Decitabine; first compound 0.08 µM)	relative viability (KN-93 + Decitabine; first compound 0.253 µM)	relative viability (KN-93 + Decitabine; first compound 2.53 µM)	relative viability (KN-93 + Decitabine; first compound 8 µM)	relative viability (KN-93 + Luminespib; first compound 0.08 µM)	relative viability (KN-93 + Luminespib; first compound 0.253 µM)	relative viability (KN-93 + Luminespib; first compound 2.53 µM)	relative viability (KN-93 + Luminespib; first compound 8 µM)	relative viability (KN-93 + Foretinib; first compound 0.08 µM)	relative viability (KN-93 + Foretinib; first compound 2.53 µM)	relative viability (KN-93 + Foretinib; first compound 8 µM)	relative viability (KN-93 + Foretinib; first compound 0.253 µM)
NCI-H1755	0.832	0.727	0.776	0.559	0.718	1.13	1.2	0.819	0.752	0.723	0.696	0.703	0.457	0.436	0.285	0.221	0.993	0.921	0.794	0.924
NCI-H2126	0.691	0.557	0.638	0.674	0.81	0.725	0.769	0.727	0.51	0.522	0.656	0.475	1.03	0.984	0.941	0.708	1.14	1.23	1.11	0.899
NCI-H1666	0.882	0.834	0.993	0.857	0.974	0.895	1.22	0.674	0.705	0.716	0.783	0.748	0.946	1.13	1.1	0.941	0.85	1.01	0.959	0.996
NCI-H1395	0.702	0.666	0.707	0.469	1.16	1.1	1.05	0.506	0.713	0.739	0.745	0.615	0.631	0.619	0.664	0.604	1.09	0.964	0.697	0.934
NCI-H23	0.566	0.544	0.662	0.344	0.592	0.702	1.01	0.596	0.849	0.306	0.296	0.288	0.227	0.185	0.199	0.212	0.935	1.1	0.666	1.13
SW 1573	0.473	0.689	0.584	0.252	0.87	0.805	0.933	0.632	0.494	0.615	0.466	0.212	0.178	0.303	0.187	0.144	0.863	0.933	1	0.91
NCI-H1944	0.403	0.376	0.383	0.31	0.832	0.761	0.931	0.754	0.45	0.414	0.413	0.395	0.741	0.699	0.729	0.43	0.831	0.709	0.557	0.835
LCLC-97TM1	0.461	0.634	0.561	0.353	0.282	–	0.217	0.206	0.288	0.208	0.279	0.211	0.717	0.845	0.849	0.714	0.955	0.895	0.74	0.978
HOP-62	0.855	1.08	1.07	0.537	1.1	1.22	1.22	0.866	0.225	0.27	0.241	0.239	0.842	1.13	0.995	0.903	1.2	1.26	0.958	1.22
LXF-289	0.875	0.967	0.873	0.634	0.974	1.11	1.11	0.705	0.391	0.413	0.416	0.388	0.536	0.833	0.787	0.588	0.982	0.944	0.805	1.01
NCI-H1915	0.571	0.718	0.653	0.472	1.06	1.17	1.1	0.95	0.274	0.261	0.26	0.246	0.567	1.47	0.846	0.748	0.952	1.25	0.912	1.23
NCI-H727	0.644	0.512	0.486	0.337	0.466	0.525	0.563	0.378	0.795	–	0.816	0.827	0.367	0.326	0.351	0.376	1.04	0.863	0.553	0.945
UMC-11	0.442	0.526	0.488	0.314	–	1.24	1.27	0.613	0.594	0.612	0.634	0.461	1.01	1.33	1.32	0.346	0.97	1.23	0.452	1.28
NCI-H838	0.443	0.328	0.445	0.41	0.989	0.911	1.09	0.887	0.436	0.455	0.487	0.427	0.306	0.268	0.197	0.223	0.946	1.13	0.905	0.977
NCI-H1437	0.885	0.984	0.852	0.651	0.876	1.25	0.88	0.613	0.519	0.768	0.533	0.405	0.999	1.3	0.907	0.559	1.17	1.13	0.64	1.26

From the supplement of paper PMC10307832
